{"source": "paper PMC5964550", "about": "(Contrast Media & Molecular Imaging, 2018)", "key": {"P-gp": {"tested_on": "P-gp", "conditions": "mice, cited from earlier work"}, "rodent P-gp": {"tested_on": "rodent P-gp", "set-up": "method as in PMID 17962372, PMID 15502009", "conditions": "cited from earlier work"}, "[1]": {"conditions": "cited from earlier work"}, "[2]": {"tested_on": "cytochrome P450 2D6 (CYP2D6)", "conditions": "cited from earlier work"}, "human P-gp": {"tested_on": "human P-gp", "set-up": "method as in PMID 17962372, PMID 15502009", "conditions": "cited from earlier work"}, "OATP1B3 (SLCO1B3)": {"tested_on": "OATP1B3 (SLCO1B3)", "set-up": "method as in earlier work", "conditions": "in vitro; cited from earlier work"}, "OATP1B1 (SLCO1B1)": {"tested_on": "OATP1B1 (SLCO1B1)", "set-up": "method as in earlier work", "conditions": "in vitro; cited from earlier work"}, "[3]": {"tested_on": "P-gp at the canalicular membrane", "set-up": "method as in PMID 12576431", "conditions": "humans; cited from earlier work"}, "OATP2B1 (SLCO2B1)": {"tested_on": "OATP2B1 (SLCO2B1)", "set-up": "method as in earlier work", "conditions": "in vitro; cited from earlier work"}, "[4]": {"conditions": "rat, iv"}, "[5]": {"test": "[11C]metoclopramide plasma kinetics and metabolism in rats (radio-HPLC)", "format": "in vivo", "conditions": "rat", "source_text": "[…]. […] […]."}}, "data": [{"compound": "CCN(CC)CCNC(=O)c1cc(Cl)c(N)cc1OC", "note": "[metoclopramide]", "values": [{"measurement": "influence of P-gp deficiency on metoclopramide PK", "setting": "P-gp; 3 mg/kg, over 5 hours", "result": "no influence"}, {"measurement": "effect of P-gp deficiency on brain distribution", "setting": "P-gp", "result": "enhance"}, {"measurement": "impact of P-gp deficiency on plasma pharmacokinetics", "setting": "P-gp", "result": "no or negligible impact"}, {"measurement": "substrate of rodent P-gp", "setting": "rodent P-gp", "result": "substrate"}, {"measurement": "excreted unchanged in urine", "setting": "[1]; after intravenous administration", "result": 19, "unit": "%"}, {"measurement": "lower plasma clearance in hepatic impairment (liver cirrhosis)", "setting": "[1]; liver cirrhosis", "result": 50, "unit": "%"}, {"measurement": "substrate of CYP2D6", "setting": "[2]", "result": "substrate"}, {"measurement": "substrate of human P-gp", "setting": "human P-gp", "result": "substrate"}]}, {"compound": "COc1cc2c(cc1OC)CN(CCc1ccc(NC(=O)c3cc(OC)c(OC)cc3NC(=O)c3cnc4ccccc4c3)cc1)CC2", "note": "[tariquidar]", "values": [{"measurement": "inhibitor of OATP1B3", "setting": "OATP1B3 (SLCO1B3)", "result": "not"}, {"measurement": "inhibitor of OATP1B1", "setting": "OATP1B1 (SLCO1B1)", "result": "not"}, {"measurement": "effect on liver exposure to [99mTc]sestamibi", "setting": "[3]", "result": "enhance"}, {"measurement": "inhibitor of OATP2B1", "setting": "OATP2B1 (SLCO2B1)", "result": "inhibitor"}]}, {"compound": "CCN(CC)CCNC(=O)c1cc(Cl)c(N)cc1O[11CH3]", "note": "[[^11C]metoclopramide]", "values": [{"measurement": "AUCliver (area under the time-activity curve of radioactivity in the liver, 0 to 30 min)", "setting": "[4]; male, Wistar, in vivo, 3 mg/kg", "result": "42.9 ± 13.8", "unit": "SUV·min"}, {"measurement": "effect of P-gp inhibition on liver AUC", "setting": "[4]; not told, 8 mg/kg", "result": "did not significantly impact"}, {"measurement": "increase in AUCplasma, pharmacologic dose vs tracer dose", "setting": "[5]; in vivo", "result": 2.1, "unit": "fold"}, {"measurement": "proportion of parent [11C]metoclopramide in plasma, pharmacologic dose vs tracer dose", "setting": "[5]; metoclopramide 3 mg/kg, calculated from ref 14", "result": "higher"}, {"measurement": "impact of P-gp inhibition on plasma clearance and metabolism", "setting": "[5]; not told, 8 mg/kg", "result": "did not impact"}]}]}
